Values quoted from earlier work as cited in US20080213374A1, “NANOPARTICULATE SORAFENIB FORMULATIONS” (Elan Pharma International Limited, priority 2006, published 2008).

## CNC(=O)c1cc(Oc2ccc(NC(=O)Nc3ccc(Cl)c(C(F)(F)F)c3)cc2)ccn1.Cc1ccc(S(=O)(=O)O)cc1 [Sorafenib tosylate, 4-(4-{3-[4-Chloro-3-(trifluoromethyl)phenyl]ureido}phenoxy)-N2-methylpyridine-2-carboxamide 4-methylbenzenesulfonate]
PEG 400
  solubility in PEG 400: soluble
Aqueous media
  solubility in aqueous media: practically insoluble
ethanol
  solubility in ethanol: slightly soluble
  solubility in water: practically insoluble

## CNC(=O)c1cc(Oc2ccc(NC(=O)Nc3ccc(Cl)c(C(F)(F)F)c3)cc2)ccn1 [Sorafenib]
  solubility in water: practically insoluble
